Measured values reported in US12209102B2, “Heterocyclic compounds and uses thereof” (Kumquat Biosciences Inc., priority 2022, dated 2025).

What was measured:
A549 cells = assay: Ras cellular assay, growth of cells with K-Ras G12S mutation (CellTiter-Glo); assay type: cell-based; details: Homo sapiens, cell growth, Example 9, G12S mutation, read-out: IC50 against A549 cells
Outline: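 A549 cells (K-Ras G12S) in RPMI-1640 with 10% heat-inactivated FBS, seeded e.g. 800 per well in standard or ultra-low-attachment 384-well plates, treated next day with a dilution series (e.g. 10-point, 3-fold). Viability by CellTiter-Glo luminescence about 6 days later; IC50 from four-parameter fit.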

K-Ras G12S = target: T1, K-Ras G12S (Homo sapiens, UniProt P01116, G12S); assay: HTRF resonance energy transfer assay, K-Ras G12S / SOS1 interaction; assay type: biochemical; details: HTRF assay of Example 5; read-out: IC50 against K-Ras G12S
T1 construct: made in house; host or cells: E. coli BL21 (DE3)
T1 sequence (P01116 1-188 isoform P01116-2 G12S): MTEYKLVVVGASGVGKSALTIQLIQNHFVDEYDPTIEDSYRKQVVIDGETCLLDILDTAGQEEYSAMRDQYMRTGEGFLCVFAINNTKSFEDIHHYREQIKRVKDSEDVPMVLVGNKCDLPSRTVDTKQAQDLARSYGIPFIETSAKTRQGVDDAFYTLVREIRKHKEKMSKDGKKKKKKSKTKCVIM
Outline: (§1)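 Read-out: HTRF 665/620 nm ratio (excitation 337 nm) after roughly 10 min or longer incubation, used to derive IC50. Donor anti-GST-Eu on GST-K-Ras; acceptor anti-6His-XL665 on His-hSOS1. Duplicate dose series from 10 μM down to 0.01 μM.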

K-Ras WT = target: T2, K-Ras WT (Homo sapiens, UniProt P01116); assay: HTRF resonance energy transfer assay, K-Ras WT / SOS1 interaction; assay type: biochemical; details: HTRF assay of Example 5; read-out: IC50 against K-Ras WT
T2 construct: made in house; host or cells: E. coli BL21 (DE3)
T2 sequence (P01116 1-188 isoform P01116-2): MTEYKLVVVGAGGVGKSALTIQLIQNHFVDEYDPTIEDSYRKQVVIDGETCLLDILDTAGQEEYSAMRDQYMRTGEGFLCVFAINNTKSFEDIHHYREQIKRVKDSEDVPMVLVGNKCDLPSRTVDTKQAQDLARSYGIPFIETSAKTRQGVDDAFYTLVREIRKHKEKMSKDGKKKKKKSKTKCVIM
Outline: as §1

K-Ras G12D = target: T3, K-Ras G12D (Homo sapiens, UniProt P01116, G12D); assay: HTRF resonance energy transfer assay, K-Ras G12D / SOS1 interaction; assay type: biochemical; details: HTRF assay of Example 5; read-out: IC50 against K-Ras G12D
T3 construct: made in house; host or cells: E. coli BL21 (DE3)
T3 sequence (P01116 1-188 isoform P01116-2 G12D): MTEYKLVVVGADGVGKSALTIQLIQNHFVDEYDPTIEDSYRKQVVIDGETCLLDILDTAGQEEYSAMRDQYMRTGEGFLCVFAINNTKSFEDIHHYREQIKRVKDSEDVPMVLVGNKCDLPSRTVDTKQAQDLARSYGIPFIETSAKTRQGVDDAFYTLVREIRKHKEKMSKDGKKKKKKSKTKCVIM
Outline: as §1

K-Ras G12V = target: T4, K-Ras G12V (Homo sapiens, UniProt P01116, G12V); assay: HTRF resonance energy transfer assay, K-Ras G12V / SOS1 interaction; assay type: biochemical; details: HTRF assay of Example 5; read-out: IC50 against K-Ras G12V
T4 construct: made in house; host or cells: E. coli BL21 (DE3)
T4 sequence (P01116 1-188 isoform P01116-2 G12V): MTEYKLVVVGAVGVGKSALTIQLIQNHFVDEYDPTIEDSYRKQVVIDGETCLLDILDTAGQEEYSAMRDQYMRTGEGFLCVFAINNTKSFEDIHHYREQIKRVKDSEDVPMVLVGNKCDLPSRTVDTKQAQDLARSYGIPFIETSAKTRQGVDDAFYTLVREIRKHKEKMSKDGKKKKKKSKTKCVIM
Outline: as §1

SW620 cells = assay: Ras cellular assay, growth of cells with K-Ras G12V mutation (CellTiter-Glo); assay type: cell-based; details: Homo sapiens, SW-620; cell growth, Example 9, G12V mutation; read-out: IC50 against SW620 cells
Outline: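 SW620 (K-Ras G12V) cells, e.g. 800/well in RPMI-1640 with 10% heat-inactivated FBS on standard or ultra-low attachment plates, were dosed the day after plating with e.g. a 10-point 3-fold series. Viability by CellTiter-Glo luminescence about 6 days later; IC50 from four-parameter fit.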

Compound | IC50 (A549 cells) | IC50 (K-Ras G12S) | IC50 (K-Ras WT) | IC50 (K-Ras G12D) | IC50 (K-Ras G12V) | IC50 (SW620 cells)
N#Cc1c(N)sc2c(F)ccc(-c3c(Cl)c4c5c(nc(OC[C@@]67CCCN6C[C@H](F)C7)nc5c3F)N(C3CCC(C#N)C3)CCO4)c12 (stereo partly drawn) [Compound 684, 2-amino-4-(8-chloro-4-(3-cyanocyclopentyl)-10-fluoro-2-(((2R,7aS)-2-fluorotetrahydro-1H-pyrrolizin-7a(5H)-yl)methoxy)-5,6-dihydro-4H-[1,4]oxazepino[5,6,7-de]quinazolin-9-yl)-7-fluorobenzo[b]thiophene-3-carbonitrile] | < 5000 nM | < 100 nM | < 100 nM | < 100 nM | < 100 nM | < 5000 nM
N#Cc1c(N)sc2c(F)ccc(-c3c(Cl)c4c5c(nc(OC[C@@]67CCCN6C[C@H](F)C7)nc5c3F)N(C3CCC(NC(=O)C(F)F)C3)CCO4)c12 (stereo partly drawn) [Compound 673, N-(3-(9-(2-amino-3-cyano-7-fluorobenzo[b]thiophen-4-yl)-8-chloro-10-fluoro-2-(((2R,7aS)-2-fluorotetrahydro-1H-pyrrolizin-7a(5H)-yl)methoxy)-5,6-dihydro-4H-[1,4]oxazepino[5,6,7-de]quinazolin-4-yl)cyclopentyl)-2,2-difluoroacetamide] | < 5000 nM | < 100 nM | < 100 nM | < 100 nM | < 100 nM | < 5000 nM
N#Cc1c(N)sc2c(F)ccc(-c3c(Cl)c4c5c(nc(OC[C@@]67CCCN6C[C@H](F)C7)nc5c3F)N(C3CCCC3)CCO4)c12 [Compound 639, 2-amino-4-(8-chloro-4-cyclopentyl-10-fluoro-2-(((2R,7aS)-2-fluorotetrahydro-1H-pyrrolizin-7a(5H)-yl)methoxy)-5,6-dihydro-4H-[1,4]oxazepino[5,6,7-de]quinazolin-9-yl)-7-fluorobenzo[b]thiophene-3-carbonitrile] | < 5000 nM | < 100 nM | < 100 nM | < 100 nM | < 100 nM | < 5000 nM
N#Cc1c(N)sc2c(F)ccc(-c3c(Cl)c4c5c(nc(OC[C@@]67CCCN6C[C@H](F)C7)nc5c3F)N(C3CC5CCC3N5)CCO4)c12 (stereo partly drawn) [Compound 733, 4-(4-(7-azabicyclo[2.2.1]heptan-2-yl)-8-chloro-10-fluoro-2-(((2R,7aS)-2-fluorotetrahydro-1H-pyrrolizin-7a(5H)-yl)methoxy)-5,6-dihydro-4H-[1,4]oxazepino[5,6,7-de]quinazolin-9-yl)-2-amino-7-fluorobenzo[b]thiophene-3-carbonitrile] | < 5000 nM | < 100 nM | < 100 nM | < 100 nM | < 100 nM | < 5000 nM
N#Cc1c(N)sc2c(F)ccc(-c3c(Cl)c4c5c(nc(OC[C@@]67CCCN6C[C@H](F)C7)nc5c3F)N(C3CCN(C(=O)C5CC5C#N)CC3)CCO4)c12 (stereo partly drawn) [Compound 703, 2-amino-4-(8-chloro-4-(1-(2-cyanocyclopropane-1-carbonyl)piperidin-4-yl)-10-fluoro-2-(((2R,7aS)-2-fluorotetrahydro-1H-pyrrolizin-7a(5H)-yl)methoxy)-5,6-dihydro-4H-[1,4]oxazepino[5,6,7-de]quinazolin-9-yl)-7-fluorobenzo[b]thiophene-3-carbonitrile] | < 5000 nM | < 100 nM | < 100 nM | < 100 nM | < 100 nM | < 5000 nM

Next, values leading:

IC50 (A549 cells) | IC50 (K-Ras G12S) | IC50 (K-Ras WT) | IC50 (K-Ras G12D) | IC50 (K-Ras G12V) | IC50 (SW620 cells) | Compound
< 5000 nM | < 100 nM | < 100 nM | < 100 nM | < 100 nM | < 5000 nM | C[C@H]1CN(C2CCN(C(=O)C3CC3C#N)CC2)c2nc(OC[C@@]34CCCN3C[C@H](F)C4)nc3c(F)c(-c4ccc(F)c5sc(N)c(C#N)c45)c(Cl)c(c23)O1 (stereo partly drawn) [Compound 1051, 2-amino-4-((6S)-8-chloro-4-(1-(2-cyanocyclopropane-1-carbonyl)piperidin-4-yl)-10-fluoro-2-(((2R,7aS)-2-fluorotetrahydro-1H-pyrrolizin-7a(5H)-yl)methoxy)-6-methyl-5,6-dihydro-4H-[1,4]oxazepino[5,6,7-de]quinazolin-9-yl)-7-fluorobenzo[b]thiophene-3-carbonitrile]
< 5000 nM | < 100 nM | < 100 nM | < 100 nM | < 100 nM | < 5000 nM | N#Cc1c(N)sc2c(F)ccc(-c3c(Cl)c4c5c(nc(OC[C@@]67CCCN6C[C@H](F)C7)nc5c3F)N(C3CCC5(C3)CN(C(=O)C3CC3)C5)CCO4)c12 (stereo partly drawn) [Compound 1011, 2-amino-4-(8-chloro-4-(2-(cyclopropanecarbonyl)-2-azaspiro[3.4]octan-6-yl)-10-fluoro-2-(((2R,7aS)-2-fluorotetrahydro-1H-pyrrolizin-7a(5H)-yl)methoxy)-5,6-dihydro-4H-[1,4]oxazepino[5,6,7-de]quinazolin-9-yl)-7-fluorobenzo[b]thiophene-3-carbonitrile]
< 5000 nM | < 100 nM | < 100 nM | < 100 nM | < 100 nM | < 5000 nM | N#Cc1c(N)sc2c(F)ccc(-c3c(Cl)c4c5c(nc(OC[C@@]67CCCN6C[C@H](F)C7)nc5c3F)N(C3CCC5(C3)CN(C(=O)C3CC3(F)F)C5)CCO4)c12 (stereo partly drawn) [Compound 746, 2-amino-4-(8-chloro-4-(2-(2,2-difluorocyclopropane-1-carbonyl)-2-azaspiro[3.4]octan-6-yl)-10-fluoro-2-(((2R,7aS)-2-fluorotetrahydro-1H-pyrrolizin-7a(5H)-yl)methoxy)-5,6-dihydro-4H-[1,4]oxazepino[5,6,7-de]quinazolin-9-yl)-7-fluorobenzo[b]thiophene-3-carbonitrile]
< 5000 nM | < 100 nM | < 100 nM | < 100 nM | < 100 nM | < 5000 nM | C[C@H](Oc1nc2c3c(c(Cl)c(-c4ccc(F)c5sc(N)c(C#N)c45)c(F)c3n1)OCCN2C1CCN(C(=O)c2ccnn2C)CC1)[C@@H]1CCCN1C [Compound 1012, 2-amino-4-(8-chloro-10-fluoro-4-(1-(1-methyl-1H-pyrazole-5-carbonyl)piperidin-4-yl)-2-((S)-1-((S)-1-methylpyrrolidin-2-yl)ethoxy)-5,6-dihydro-4H-[1,4]oxazepino[5,6,7-de]quinazolin-9-yl)-7-fluorobenzo[b]thiophene-3-carbonitrile]
< 5000 nM | < 100 nM | < 100 nM | < 100 nM | < 100 nM | < 5000 nM | N#Cc1c(N)sc2c(F)ccc(-c3c(Cl)c4c5c(nc(OC[C@@]67CCCN6C[C@H](F)C7)nc5c3F)N(C3CCCCC3O)CCO4)c12 (stereo partly drawn) [Compound 838, 2-amino-4-(8-chloro-10-fluoro-2-(((2R,7aS)-2-fluorotetrahydro-1H-pyrrolizin-7a(5H)-yl)methoxy)-4-(2-hydroxycyclohexyl)-5,6-dihydro-4H-[1,4]oxazepino[5,6,7-de]quinazolin-9-yl)-7-fluorobenzo[b]thiophene-3-carbonitrile]
< 5000 nM | < 100 nM | < 100 nM | < 100 nM | < 100 nM | < 5000 nM | N#Cc1c(N)sc2c(F)ccc(-c3c(Cl)c4c5c(nc(OC[C@@]67CCCN6C[C@H](F)C7)nc5c3F)N(CC(F)F)CC(C3CC3)O4)c12 (stereo partly drawn) [Compound 1128, 2-amino-4-(8-chloro-6-cyclopropyl-4-(2,2-difluoroethyl)-10-fluoro-2-(((2R,7aS)-2-fluorotetrahydro-1H-pyrrolizin-7a(5H)-yl)methoxy)-5,6-dihydro-4H-[1,4]oxazepino[5,6,7-de]quinazolin-9-yl)-7-fluorobenzo[b]thiophene-3-carbonitrile]
< 5000 nM | < 100 nM | < 100 nM | < 100 nM | < 100 nM | < 5000 nM | N#Cc1c(N)sc2c(F)ccc(-c3c(Cl)c4c5c(nc(OC[C@@]67CCCN6C[C@H](F)C7)nc5c3F)N(C3CC(N)C3)CCO4)c12 (stereo partly drawn) [Compound 734, 2-amino-4-(4-(3-aminocyclobutyl)-8-chloro-10-fluoro-2-(((2R,7aS)-2-fluorotetrahydro-1H-pyrrolizin-7a(5H)-yl)methoxy)-5,6-dihydro-4H-[1,4]oxazepino[5,6,7-de]quinazolin-9-yl)-7-fluorobenzo[b]thiophene-3-carbonitrile]
< 5000 nM | < 100 nM | < 100 nM | < 100 nM | < 100 nM | < 5000 nM | CC(=O)NC1CCC(N2CCOc3c(Cl)c(-c4ccc(F)c5sc(N)c(C#N)c45)c(F)c4nc(OC[C@@]56CCCN5C[C@H](F)C6)nc2c34)C1 (stereo partly drawn) [Compound 781, N-(3-(9-(2-amino-3-cyano-7-fluorobenzo[b]thiophen-4-yl)-8-chloro-10-fluoro-2-(((2R,7aS)-2-fluorotetrahydro-1H-pyrrolizin-7a(5H)-yl)methoxy)-5,6-dihydro-4H-[1,4]oxazepino[5,6,7-de]quinazolin-4-yl)cyclopentyl)acetamide]
